Data from patent publication US5444042A, “Method of treatment of neurodegeneration with calpain inhibitors” (Cortex Pharmaceuticals, priority 1994, dated 1995).
Where a SMILES comes first, the peptide text is derived from it. [ ]: non-standard residue; d: D form. The star is where a group is joined. Nle = CCCC[C@H](N)C(=O)O; Cbz = O=C(OCc1ccccc1)*; CH2Cl = ClC*

Legend:
[1] = test system: Calpain in crude brain extracts; test: Ca2+-stimulated spectrin proteolysis in crude brain extracts (Example 2); assay type: biochemical
Method in brief: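 Brain tissue was homogenized in 10 mM Tris pH 7.4, 0.32 M sucrose, 1 mM EGTA and 1 mM DTT, and nuclei and debris were removed. Calpain activity was scored as Ca^2+-stimulated proteolysis of endogenous spectrin.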

N18-RE-105 cells = test: Glutamate-induced cell death, MTT conversion (Example 5); assay type: cell-based; conditions: 5 mM glutamate, inhibitor 3 μg/ml, 19 hours
Procedure: Stock cultures of N18-RE-105 cells were maintained in Dulbecco's modified Eagle's medium (DMEM) containing 10% fetal bovine serum (FBS) and supplemented with hypoxanthine, aminopterin and thymidine (HAT). Subconfluent cultures were split and plated into 96-well plates. Twenty-four hours after plating the cells were exposed to fresh media containing glutamate and various concentrations of Calpain inhibitors. Control cells were not treated with glutamate. Conversion of MTT was measured 19 hours later as described. Nineteen hours after the onset of exposure, cell viability was quantitated by measuring the extent to which the cells convert 3(4,5-dimethylthiazol-2-yl)-2-5-diphenyltetrazolium bromide (MTT) to a blue formazan product, which occurs in the mitochondria of living but not dead cells (Pauwels et al., 1988). A higher absorbance is indicative of greater cell viability.

hippocampal slices [2] = test: Hippocampal slice survival after 10 min anoxia (Example 7A); assay type: cell-based, rat
Procedure: Hippocampal slices (400 um) were prepared from Sprague Dawley rats (6 to 7 weeks) and maintained in an interface chamber at 35° C. using conventional techniques, i.e., the lower surface of the slice received a constant perfusion (0.5 ml/min) of ACSF, while the upper surface was exposed to a moist atmosphere of O2 :CO2 (95%:5%) exchanged at a rate of 2 L/min. The ACSF medium contains (in mM): NaCl (124), KCl (3), KHPO4 (2.5), CaCl (3.4), NaHCO3 (26) and D-Glucose (10). Field excitatory post-synaptic responses were recorded from stratum radiatum of CAlb in response to stimulation of Schaffer-commissural fibers in CAla or CAlc. The depth of the recording electrode was optimized and evoked responses were collected at a rate of one evoked response every 30 seconds.
For the initial screening procedure, 14 to 16 slices are harvested from the hippocampus of a single rat and placed in a common ACSF bath. Each slice is tested in sequence to determine the magnitude of its pre-anoxic evoked response. Five stimulation pulses (each 0.1 ms (millisecond) in duration) were presented over a 15 second interval. The largest evoked response was noted and recorded for each slice.
After the one hour drug incubation period, the oxygen-enriched atmosphere of the chamber was made anoxic by substituting nitrogen for oxygen (N2 =95%; CO^2 =5%). The slices were retained in this anoxic environment for 10 minutes, following which the oxygen-enriched atmosphere (O^2 =95%; CO2 =5%) was reestablished.
The slices were given the opportunity to recover for 30 minutes following reoxygenation whereupon each was stimulated and the maximum evoked potential determined, as described above during the pre-anoxia period. Those slices which, after anoxia, produced a maximum evoked potential of greater than 50% of that observed prior to anoxia were defined as surviving slices.

hippocampal slices [3] = test: Hippocampal slice evoked potential recovery after anoxia (Example 7B); assay type: cell-based, rat
Procedure: As in Example 7A, hippocampal slices (400 μm) were prepared from Sprague Dawley rats (6-7 weeks) and maintained in an interface chamber at 35° C. using conventional techniques, i.e. the lower surface of the slice received a constant perfusion (0.5 ml/min) of an artificial cerebrospinal fluid (ACSF), while the upper surface was exposed to a moist atmosphere of O2 :CO2 (95%:5%) exchanged at a rate of 2 L/min. The ACSF medium contains (in mM): NaCl (124), KCl (3), KHPO4 (1.25), MgSO4 (2.5), CaCl2 (3.4), NaHCO3 (26) and D-Glucose (10). Field excitatory post-synaptic responses were recorded from stratum radiatum of CA1b in response to stimulation of Schaffer-commissural fibers in CA1a or CA1c. The depth of the recording electrode was optimized and evoked responses were collected at a rate of one evoked response every 30 seconds.
After establishing a stable baseline of evoked responses (approximately 10 minutes), ACSF containing Calpain Inhibitor was washed into the chamber and slices were incubated for a period of one hour. After incubation, evoked responses were again recorded and the change in the amplitude of the responses from baseline levels was noted. No effect of the inhibitors tested on baseline evoked responses was observed.
For anoxia experiments, incubation in the drug-containing medium was followed by replacement of the O2 :CO2 (95%:5%) atmosphere with N2 :CO2 (95%:5%). Slices were exposed to this anoxic environment until disappearance of the pre-synaptic fiber volley and for two minutes (severe anoxia) longer (total time in anoxic environment approximately 7-8 minutes in control case). Effects of Calpain Inhibitors on the functional recovery of the slices after the anoxic episode were then measured. Recovery of the evoked potential (EPSP) slope and amplitude by the drug treated slices can be compared to control slices to determine the relative efficacy of various Calpain Inhibitors.

[4] = test system: rats injected with kainic acid; test: Kainate-induced behavioral symptoms and convulsions (Example 8A); assay type: in vivo, rat; conditions: 12 mg/kg kainic acid i.p., 4.6 mg calpain inhibitor in DMSO i.p., observed six hours
Procedure: Rats (male Sprague-Dawley, 200±5 gms) were injected intraperitoneally with 12 mg/kg kainic acid in saline vehicle and ether 2001 μl DMSO (dimethylsulfoxide) or 4.6 mg calpain inhibitor dissolved in the same volume of DMSO.

Calpain I = target: T1, Calpain I (Homo sapiens, UniProt P07384); test: Kapp/[I] progress curve method, human Calpain I (Table 1C); assay type: biochemical; conditions: Suc-leu-tyr-amidomethylcoumarin
T1 sequence (P07384 1-714): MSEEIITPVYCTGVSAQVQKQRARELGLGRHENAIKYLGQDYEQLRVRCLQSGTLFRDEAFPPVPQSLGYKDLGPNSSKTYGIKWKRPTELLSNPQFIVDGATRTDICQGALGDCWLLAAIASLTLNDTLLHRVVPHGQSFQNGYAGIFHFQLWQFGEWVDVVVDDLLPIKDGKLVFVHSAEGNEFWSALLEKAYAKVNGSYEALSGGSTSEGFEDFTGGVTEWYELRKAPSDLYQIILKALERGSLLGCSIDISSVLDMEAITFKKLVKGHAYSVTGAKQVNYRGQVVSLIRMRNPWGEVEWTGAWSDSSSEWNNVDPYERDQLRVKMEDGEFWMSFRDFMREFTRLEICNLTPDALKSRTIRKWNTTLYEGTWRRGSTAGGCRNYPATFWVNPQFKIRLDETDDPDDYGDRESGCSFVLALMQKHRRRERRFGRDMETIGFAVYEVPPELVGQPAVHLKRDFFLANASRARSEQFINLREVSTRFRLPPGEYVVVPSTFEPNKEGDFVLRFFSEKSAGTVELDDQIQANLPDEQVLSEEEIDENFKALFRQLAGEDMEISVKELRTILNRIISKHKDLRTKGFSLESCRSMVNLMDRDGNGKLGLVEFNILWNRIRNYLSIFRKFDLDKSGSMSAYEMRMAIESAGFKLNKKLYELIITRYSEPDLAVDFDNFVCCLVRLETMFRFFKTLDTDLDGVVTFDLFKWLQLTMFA
T1 sequence (P04632 1-268 partner): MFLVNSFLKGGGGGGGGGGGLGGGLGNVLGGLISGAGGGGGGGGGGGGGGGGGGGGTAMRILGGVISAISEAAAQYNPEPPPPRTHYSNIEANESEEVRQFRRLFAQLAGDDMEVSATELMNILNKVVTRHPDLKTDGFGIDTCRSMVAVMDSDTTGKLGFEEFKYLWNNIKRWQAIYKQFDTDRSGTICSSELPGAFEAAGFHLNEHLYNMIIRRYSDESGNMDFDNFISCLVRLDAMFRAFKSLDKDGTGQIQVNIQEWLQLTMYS
Procedure: (§1) The Halo-Ketone Peptides, like the substituted isocoumarins, are irreversible inhibitors of Calpain. We determined the Kapp /[I] values for various members of this class of compounds against Calpains I and II. For comparison, we also determined these values against the additional thiol proteases Papain and Cathepsin B for at least one Halo-Ketone Peptide.
(§2) We assayed Calpain I and II using Suc-leu-tyr-amidomethylcoumarin. Papain was assayed using benzoyl-arg-4-nitroanilide, and Cathepsin B (bovine) was assayed using CBZ-lys-4-nitrophenyl ester. We followed the progress curve method of Tian and Tsou, Biochemistry, 21:1028-1032 (1982), the disclosure of which is hereby incorporated by reference, to derive kinetic data. Briefly, this method makes use of the equation: [formula] where [P.infin. ] represents the concentration of product formed at a time approaching infinity, A is the Kapp in the presence of substrate (S), K is the Michaelis constant and [Y] is the concentration of the inhibitor. Since [S] and [Y] are known and V and K can be determined, Kapp can be readily determined.

Calpain II = test: Kapp/[I] progress curve method, Calpain II (Table 1C); assay type: biochemical; set-up: unit not given here; conditions: Rabbit Calpain II, Suc-leu-tyr-amidomethylcoumarin
Procedure: as §1, §2

Calpain within platelets = test: Platelet membrane permeation assay, spectrin proteolysis (Examples 4A, 4B); assay type: cell-based, rat; conditions: 100 μM, A23187 1 μM
Method in brief: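 Rat (Sprague-Dawley) platelets at 10^7 cells/ml in HEPES buffer pH 7.4, preincubated 5 min with inhibitor, then 5 min with 1 μM A23187 to activate calpain. Spectrin proteolysis assessed by SDS-PAGE and anti-spectrin immunoblot, quantified by densitometry.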

Kapp/[I] CI (Calpain I)	Structure (SMILES)	inhibition in the system of Example 2 ([1]; concentration not given)	blue formazan product relative to control without glutamate (N18-RE-105 cells)	protection of slices from anoxia (FIG. 3) (hippocampal slices [2]; 10 minutes anoxic atmosphere)	Survival of slices after ten minutes anoxia (hippocampal slices [2]; Dose 200 μM, incubation 2 hours)	% Recovery of synaptic transmission after anoxia (hippocampal slices [3]; Concentration 200, ten minutes anoxia)	period of anoxia required to produce fiber volley disappearance (FIG. 6) (hippocampal slices [3]; hippocampal slices)	kainate-induced behavioral symptoms and convulsions (FIG. 7) [4]	Kapp/[I] CII (Calpain II)	inhibition of spectrin proteolysis in crude brain extracts ([1]; 100 μM)	inhibition of Calpain within platelets (Calpain within platelets)
	CCCC[C@@H](C=O)NC(=O)[C@H](CC(C)C)NC(=O)[C@H](CC(C)C)NC(C)=O [CI1, Ac-Leu-Leu-Nle-H, reference compound] (Ac-Leu-Leu-[Nle]-aldehyde)	showed inhibition	protect N18-RE-105 cells against glutamate toxicity	protected from the effects of anoxia	53%	35%	does not significantly lengthen the period of anoxia required to suppress electrical activity	incidence and severity of convulsions was reduced			
225000	CC(C)CC(NC(=O)OCc1ccccc1)C(=O)NC(Cc1ccccc1)C(=O)CCl (stereo not drawn) [Z-Leu-Phe-CH2 Cl] (Cbz-Leu-Phe-CH2Cl; configuration not given here)								585000	significant inhibition	significant inhibition
